Patent US20230383129A1, “ANTIFOULING COMPOUNDS” (I-Tech AB, priority 2020, published 2023)

How the values were obtained:
barnacle cyprid larva = conditions: barnacles; cited from earlier work
[1] = Stability/hydrolysis of monomers in ethanol and PBS buffer followed by TLC (Setup 1); assay type: physicochemical; conditions: after two weeks
Experimental: The stability of the carbamate-(M3), urea-(M4) and sulfonylderivative of medetomidine (M2 and M0) were studied in ethanol and phosphate-buffered saline (PBS) buffer. Thin-layer chromatography (TLC) was used to follow the decomposition of the derivatives to free medetomidine. It took approximately two weeks until most of the derivatives stored at room temperature to decompose. If the storage temperature was +6° C. no decomposition was observed.
Nine vials were prepared. Vial 1 contained reference compound medetomidine dissolved in ethanol (1 ml). Substance M2 (25 mg) was added to vial 2 and 3. Substance M3 (25 mg) was added to vial 4 and 5. Substance M4 (25 mg) was added to vial 6 and 7 and substance M0 was added to vial 8 and 9. The solid material in vials 2 to 9 were dissolved in ethanol (1 ml) and PBS buffer pH 7.4 (1 ml) to mimic sea water containing different salts and having a pH slightly basic. Ethanol was chosen as solvent to increase the solubility of the substances. During the study vial 1, 3, 5, 7 and 9 were stored at room temperature, whereas vial 2, 4, 6 and 8 were stored in a refrigerator at +6° C. Stability of the compounds was studied after 0, 1, 2, 5, 6, 9, 13 and 15 days using TLC and dichloromethane—methanol (95-5) as eluent.

[2] = Release of I from monomers into artificial seawater, LC-MS (Setup 2); assay type: physicochemical; conditions: for Concentration of I released: artificial seawater 3% NaCl pH 8.0, ambient temperature; for Concentration of I (near constant over the study): artificial seawater, days 10-25
Experimental: The stability of M1 and M4 was evaluated via quantification of the release of I into artificial seawater (3% NaCl, pH 8.0). For the experiments, compound M1 (0.023 g) was suspended in 5 mL artificial seawater, while M4 (0.044 g) were suspended in 10 mL artificial seawater. The solutions were stirred (300 rpm) at ambient temperatures and samples were collected at 10, 15, 20 and 25 days. The samples were stored in freezer 2-2.5 months prior to LC-MS analysis.
Samples from the release studies were analyzed using LC-MS. The LC-MS system was composed of an Acquity I-class UPLC with a Waters Xevo G2-S Qtof. The chromatographic separation was obtained on a C18 column with gradient elution (Eluent A, 0.1% NH4 in MQ-water and Eluent B, 100% acetonitrile). The samples (from freezer) were extracted with hexane and the organic extracts were analyzed by LC-MS. Three external calibration curves for I, M1 and M4 were prepared the same way as the samples and used for quantification.

[3] = ethanol/PBS buffer pH 7.4, refrigerator +6° C.
[4] = ethanol/PBS buffer pH 7.4, room temperature

Row | SMILES | concentration impeding larval settlement (barnacle cyprid larva) | decomposition to free medetomidine (TLC) [1, 3] | decomposition to free medetomidine (TLC) [1, 4] | Concentration of I released ([2]; incubation 10 days) | Concentration of I released ([2]; incubation 15 days) | Concentration of I released ([2]; incubation 20 days) | Concentration of I (near constant over the study) [2] | Concentration of I released ([2]; incubation 25 days)
1 | Cc1cccc(C(C)c2c[nH]cn2)c1C (racemic) [medetomidine, (±)-4-[1-(2,3-dimethylphenyl)ethyl)-1H-imidazole] | 1 to 10 nM | – | – | – | – | – | – | –
2 | C=CCNC(=O)n1cnc(C(C)c2cccc(C)c2C)c1 (stereo not drawn) [Compound M4, 4-[1-(2,3-dimethylphenyl)ethyl]-N-(prop-2-en-1-yl)-1H-imidazole-1-carboxamide] | – | stable | decomposition to medetomidine as well as non-hydrolyzed M4 | 5028.9 ng/mL | 5592.2 ng/mL | 5078.0 ng/mL | ~5000 ng/mL | –
3 | Cc1cccc(C(C)c2cn(S(C)(=O)=O)cn2)c1C (stereo not drawn) [Compound M0, 4-[1-(2,3-dimethylphenyl)ethyl]-1-(methanesulfonyl)-1H-imidazole] | – | stable | stable | – | – | – | – | –
4 | C=CCS(=O)(=O)n1cnc(C(C)c2cccc(C)c2C)c1 (stereo not drawn) [Compound M2, 4-[1-(2,3-dimethylphenyl)ethyl]-1-(prop-2-ene-1-sulfonyl)-1H-imidazole] | – | mixture of medetomidine and the starting material | only medetomidine | – | – | – | – | –
5 | C=C(C)C(=O)n1cnc(C(C)c2cccc(C)c2C)c1 (stereo not drawn) [Compound M1, 1-{4-[1-(2,3-dimethylphenyl)ethyl]-1H-imidazol-1-yl}-2-methylprop-2-en-1-one] | – | – | – | 9330.0 ng/mL | 9905.8 ng/mL | 9748.8 ng/mL | ~9000 ng/mL | 9820.4 ng/mL
6 | C=CCOC(=O)n1cnc(C(C)c2cccc(C)c2C)c1 (stereo not drawn) [Compound M3, prop-2-en-1-yl 4-[1-(2,3-dimethylphenyl)ethyl]-1H-imidazole-1-carboxylate] | – | mixture of medetomidine and the starting material | only medetomidine | – | – | – | – | –
